Reference: patent publication US9834525B2, “Inhibitors of paxillin function and related compositions and methods” (UNIVERSITY OF TENNESSEE RESEARCH FOUNDATION, priority 2015, dated 2017)
Entries after “also recorded” stand apart in the source; their conditions may differ.

How the values were obtained:
[1] = tested on: FAK (Y397, Y576/577, Y925); experiment: Western blot of VEGF-induced FAK phosphorylation in REC; format: cell-based, human; conditions: REC under VEGF; compound (II-4) 500 nM, SU6656 1 μM
Experimental: (§1) REC, Mel 270, OMM 2.5 under Hepatocyte Growth Factor (HGF) or Vascular Endothelial Growth Factor (VEGF) stimulation conditions: Cell lysates were collected in RIPA lysis buffer (50 mM Tris-HCl, pH 7.4, 150 mM NaCl, 2 mM EDTA, 1% Nonidet P-40, 0.1% SDS) with protease 1× inhibitor cocktail (Roche; Indianapolis, Ind.). Lysates were kept on ice and centrifuged at 10,000×g×10 minutes and total protein was measured using the BCA assay (Pierce, Rockford, Ill.). Protein samples were mixed with 4×LDS loading buffer with 2.5% 2-mercaptoethanol (Sigma-Aldrich), heated to 70° C. for 10 minutes, and loaded on NuPAGE 4-12% Bis-Tris gel (Invitrogen, Carlsbad, Calif.). Immunoblotting was performed with nitrocellulose membranes (Bio-Rad, Hercules, Calif.) at 170-mA start and 110-mA end at 25 V for two hours in NuPAGE transfer buffer (Invitrogen) containing 20% methanol. Membranes were blocked using Odyssey blocking buffer (LI-COR; Lincoln, Nebr.) for one hour at room temperature with gentle shaking Membranes were then incubated at 4° C. with specific primary antibodies (1:1000) overnight. Cellular protein was normalized using rabbit-GAPDH or mouse-α-Tubulin [1:20,000] (Cell Signaling, Danvers, Mass.; LI-COR, respectively). […] Dual-channel infrared scan and quantitation of immunoblots were conducted using the ODYSSEY Sa infrared imaging system with Image Studio (Ver. 3.1.4) (LI-COR). […]

ERK1/2 = experiment: Western blot of VEGF-induced ERK1/2 phosphorylation in REC; format: cell-based, human; conditions: REC under VEGF; compound (II-4) 500 nM, SU6656 1 μM
Experimental: as §1

AKT in OMM 2.5 cells = experiment: Western blot of pAKT/AKT in HGF-stimulated metastatic UM cells; format: cell-based, human; conditions: HGF-stimulated OMM 2.5 cells, harvest after 4 hrs
Experimental: REC, Mel 270, OMM 2.5 under Hepatocyte Growth Factor (HGF) or Vascular Endothelial Growth Factor (VEGF) stimulation conditions: Cell lysates were collected in RIPA lysis buffer (50 mM Tris-HCl, pH 7.4, 150 mM NaCl, 2 mM EDTA, 1% Nonidet P-40, 0.1% SDS) with protease 1× inhibitor cocktail (Roche; Indianapolis, Ind.). Lysates were kept on ice and centrifuged at 10,000×g×10 minutes and total protein was measured using the BCA assay (Pierce, Rockford, Ill.). Protein samples were mixed with 4×LDS loading buffer with 2.5% 2-mercaptoethanol (Sigma-Aldrich), heated to 70° C. for 10 minutes, and loaded on NuPAGE 4-12% Bis-Tris gel (Invitrogen, Carlsbad, Calif.). Immunoblotting was performed with nitrocellulose membranes (Bio-Rad, Hercules, Calif.) at 170-mA start and 110-mA end at 25 V for two hours in NuPAGE transfer buffer (Invitrogen) containing 20% methanol. […] Dual-channel infrared scan and quantitation of immunoblots were conducted using the ODYSSEY Sa infrared imaging system with Image Studio (Ver. 3.1.4) (LI-COR).
FIG. 16: Paxillin inhibition reduced pAKT signaling in metastatic UM cells. A, Representative Western Blot of total and phosphorylated paxillin in metastatic UM cells, as in FIG. 4A-B. B, Quantitation from n=3. […] Lysates were measured by Western Blot. […]

CYP2D6 = target: T1, CYP2D6 (Homo sapiens, UniProt P10635); experiment: CYP-450 interaction study in pooled human liver microsomes, CYP2D6; format: in vitro ADME; conditions: 1 μM
T1 construct: from tissue; host or cells: pooled human liver microsomes
T1 sequence (P10635 whole entry): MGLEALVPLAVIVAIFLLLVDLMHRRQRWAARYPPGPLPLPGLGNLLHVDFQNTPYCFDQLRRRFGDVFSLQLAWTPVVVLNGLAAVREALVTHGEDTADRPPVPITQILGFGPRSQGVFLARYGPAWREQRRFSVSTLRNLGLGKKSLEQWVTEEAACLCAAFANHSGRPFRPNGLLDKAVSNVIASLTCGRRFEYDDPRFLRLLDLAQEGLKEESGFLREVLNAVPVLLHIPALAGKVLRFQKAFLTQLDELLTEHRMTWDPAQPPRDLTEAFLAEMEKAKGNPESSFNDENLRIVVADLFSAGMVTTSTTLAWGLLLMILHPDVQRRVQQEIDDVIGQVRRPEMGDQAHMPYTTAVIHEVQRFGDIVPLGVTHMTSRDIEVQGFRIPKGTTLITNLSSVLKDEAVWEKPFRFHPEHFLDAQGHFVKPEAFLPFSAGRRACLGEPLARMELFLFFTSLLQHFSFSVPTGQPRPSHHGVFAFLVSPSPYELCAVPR
Experimental: CYP-450 interaction studies were conducted in pooled human liver microsomes (FIG. 8). CYP-450 inhibition (%) by compound (II-4) (1 μM) was compared to control inhibitors (1 μM) for the most common CYP-450 isoforms, CYP3A4, CYP2C9, CYP2D6, CYP2C19, and CYP1A2.
CYP-450 interaction studies were conducted in pooled human liver microsomes (FIG. 24). CYP-450 inhibition (%) by compound (II-4) (1 μM) was compared to control inhibitors (1 μM) for the most common CYP-450 isoforms, 3A4, 2C9, 2D6, 2C19, and 1A2.

murine OIR model = experiment: Murine OIR model, retinal whole-mounts; format: in vivo, mouse; conditions: daily ocular administration 0.5 mg/kg or 5 mg/kg in ME, P12 to P17, vs vehicle
Excerpt: Topical delivery of compound (II-4) using an ocular ME was chosen for several reasons. First, intravitreal injection is technically challenging and, unlike intraocular delivery of proteins, is unnecessary for delivery of small molecules. […] The murine OIR model was used to examine the effect of compound (II-4) on the natural history of VEGF-induced proliferative retinopathy. Briefly, pups were exposed to 75% oxygen at post-natal day 7 (P7) for 5 days and then returned to normal oxygen at P12. Mice received daily ocular administration of either compound (II-4) (0.5 mg/kg or 5 mg/kg) or vehicle (ME) from P12 to P17. Eyes were enucleated at P17 and retinal whole-mounts stained for endothelial cells followed by quantification of avascular area and vascular tuft formation.
FIG. 22: Oxygen-Induced Retinopathy (OIR). (A:) P17 retinal whole-mounts were stained for endothelial cells. […] Data represent mean (±SD). N=8-14/group. […] (C): Quantitation of panel A neovascular area. (D): Quantitation of panel A avascular area. (E): Quantitation of panel B total paxillin.

SMILES: COc1cc(C2OC(=O)Nc3c2ccc2ccccc32)cc(OC)c1OC (stereo not drawn) [compound II-4]
- VEGF-induced FAK activation (Y397, Y925) [1]: independent of both FAK Y397 autophosphorylation and Src-driven FAK Y925; also recorded: not FAK Y925 activation
- VEGF-dependent ERK1/2 phosphorylation (ERK1/2): No significant change; also recorded: Neither SU6656 nor compound (II-4) decreased
- pAKT/AKT (AKT in OMM 2.5 cells): significant reduction
- CYP-450 inhibition, CYP2D6 (CYP2D6): lack of significant inhibition; also recorded: lacks significant inhibition
- hypoxia-induced neovascularization (neovascular area) (murine OIR model): striking inhibition; also recorded: reductions in NV
- retinal avascular area (murine OIR model): modest increase; also recorded: increases in AV
